In one assay the test system is Molm-13 cells. The assay is described as follows: Leukemia cell proliferation inhibition test (ATPlite), Molm-13. It is filed as cell-based. The settings on record: Homo sapiens, read-out: MOLM13 cell proliferation inhibition effect. A digest of the protocol: (§1)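 Molm-13 or MV4-11 cells at 10,000 cells/well in RPMI with 10% FBS and pen/strep were exposed to serially diluted compound for 72 h at 37 °C, 5% CO2. Total cellular ATP was read by luciferase luminescence. GI50 was taken relative to 0.1% DMSO control, from duplicates by sigmoid non-linear regression.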

The test system of the next assay is MV4-11 cells. Briefly: Leukemia cell proliferation inhibition test (ATPlite), MV4-11. It is filed as cell-based. The settings on record: Homo sapiens, read-out: MV4-11 cell proliferation inhibition effect. The method in brief:
as §1

For assay [1], the target named is T1, human FLT3 protein (FLT3 (WT)) (Homo sapiens, UniProt P36888).
T1 construct: human FLT3 protein (intracellular region, 564 to 993 aa); GST; purchased Carna Biosciences; host or cells: baculovirus expression system
T1 sequence (P36888 564-993): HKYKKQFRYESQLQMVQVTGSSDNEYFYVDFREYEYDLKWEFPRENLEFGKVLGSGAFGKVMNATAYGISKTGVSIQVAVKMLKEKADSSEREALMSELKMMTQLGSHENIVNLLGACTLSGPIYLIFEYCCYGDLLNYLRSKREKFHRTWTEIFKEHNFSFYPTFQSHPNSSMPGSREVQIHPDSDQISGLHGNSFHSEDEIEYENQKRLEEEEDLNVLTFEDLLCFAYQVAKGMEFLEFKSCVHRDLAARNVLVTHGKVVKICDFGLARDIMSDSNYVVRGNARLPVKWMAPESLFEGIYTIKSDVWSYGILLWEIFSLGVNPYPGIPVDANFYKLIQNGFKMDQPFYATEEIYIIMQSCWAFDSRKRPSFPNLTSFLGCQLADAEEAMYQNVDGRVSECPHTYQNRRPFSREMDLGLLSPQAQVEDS
Briefly: FLT3 inhibition test (FLT3 enzyme inhibition, time-resolved fluorescence of substrate peptide phosphorylation). The assay is classed as biochemical. The settings on record: read-out: FLT3 (WT) enzyme inhibition activity. The method in brief: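 Substrate peptide phosphorylation detected by time-resolved fluorescence after a 30 min kinase reaction at 25° C with 50 μM ATP (final). Beforehand, compound and FLT3 (WT, 1.2 μg) stood 15 min at 25° C in HEPES buffer pH 7.5 containing MgCl2, NaCl, BSA and DTT.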

[2] abbreviates: MOLM-13, 72 h, Molm-13, 72 hours culture, ATPlite, GI50 per method.
The mark [3] stands for this setting: MV4-11, 72 h, MV4-11, 72 hours culture, ATPlite, GI50 per method.
The mark [4] stands for this setting: GST-fused human FLT3 (564 to 993 aa), ATP 50 μM.

Read-outs that look alike come from different tables or passages of the source.

Regarding `CCCNc1nc(Nc2ccc(C(N)=O)cc2)ncc1C(=O)Nc1cccc(N2CCN(C(=O)/C=C/CN(C)C)CC2)c1` [Compound 3-31], the IC50 in the assay with Molm-13 cells (setting [2]) was 0.1 to 1 µM; with MV4-11 cells (setting [3]), 0.1 to 1 µM; in assay [1] (setting [4]), less than 0.01 µM.

In the case of `C=CC(=O)N[C@H](C)C(=O)Nc1cccc(NC(=O)c2cnc(NCCc3ccncc3)nc2NCCC)c1` [Compound 2-3], the IC50 is 0.01 to 0.1 µM with Molm-13 cells (setting [2]), 0.01 to 0.1 µM in the assay with MV4-11 cells (setting [3]) and less than 0.01 µM in assay [1] (setting [4]).

Regarding `CCCNc1nc(Nc2ccc(C#N)cc2)ncc1C#Cc1cccc(NC(=O)[C@H](C)N(C)C(=O)/C=C/CN(C)C)n1` [Compound 8-19], the IC50 in the assay with Molm-13 cells (setting [2]) is 0.01 to 0.1 µM; with MV4-11 cells (setting [3]), 0.01 to 0.1 µM; in assay [1] (setting [4]), less than 0.01 µM.

Regarding `CCCNc1nc(Nc2cccc(-n3cccn3)c2)ncc1C#CCCCNC(=O)[C@H](C)N(C)C(=O)/C=C/CN(C)C` [Compound 22-18], the IC50 in the assay on Molm-13 cells (MOLM-13, MOLM13 cell) was less than 0.01 µM; in the assay on MV4-11 cells (MV4-11, MV4-11 cell) it was less than 0.01 µM; in assay [1] (FLT3 (WT)), less than 0.01 µM.

With `CCCNc1nc(NC(=O)Nc2ccncc2)ncc1C(=O)Nc1cccc(NC(=O)[C@H](C)N(C)C(=O)/C=C/CN(C)C)c1` [Compound 6-14], the IC50 is 0.01 to 0.1 µM with Molm-13 cells (setting [2]), less than 0.01 µM with MV4-11 cells (setting [3]) and less than 0.01 µM in assay [1] (setting [4]).

Regarding `C[C@@H](C(=O)NCCCC#Cc1cnc(Nc2ccc(F)c(F)c2)nc1NC1CC1)N(C)C(=O)/C=C/CN(C)C` [Compound 21-2], the IC50 (with Molm-13 cells (setting [2]); in the assay with MV4-11 cells (setting [3]); in assay [1] (setting [4])) was less than 0.01 µM in each case.

For `C[C@@H](C(=O)NCCCC#Cc1cnc(Nc2ccc(C#N)cc2)nc1N1CCC1)N(C)C(=O)/C=C/CN(C)C` [Compound 10-14], the IC50 (with Molm-13 cells (setting [2]); with MV4-11 cells (setting [3]); in assay [1] (setting [4])) was less than 0.01 µM in each case.

As for `CCCNc1nc(Nc2ccc(C(N)=O)cc2)ncc1C(=O)NCCCNc1ncccc1NC(=O)/C=C/CN(C)C` [Compound 3-29], the IC50 is 0.01 to 0.1 µM with Molm-13 cells (setting [2]), 0.01 to 0.1 µM in the assay on MV4-11 cells (setting [3]) and less than 0.01 µM in assay [1] (setting [4]).

For the molecule `CCCNc1nc(Nc2ccc3c(F)nn(C)c3c2)ncc1C#CCCCNC(=O)[C@H](C)N(C)C(=O)/C=C/CN(C)C` [Compound 22-58], the IC50 was less than 0.01 µM with Molm-13 cells (MOLM-13, MOLM13 cell); less than 0.01 µM in the assay on MV4-11 cells (MV4-11, MV4-11 cell); less than 0.01 µM in assay [1] (FLT3 (WT)).

With `CCCNc1nc(Nc2cccc(-n3nccn3)c2)ncc1C#CCCCNC(=O)[C@H](C)N(C)C(=O)/C=C/CN(C)C` [Compound 22-19], the IC50 in the assay with Molm-13 cells (MOLM-13, MOLM13 cell) was less than 0.01 µM; in the assay with MV4-11 cells (MV4-11, MV4-11 cell), less than 0.01 µM; in assay [1] (FLT3 (WT)), less than 0.01 µM.

Regarding `CNc1ncc(C#C[C@@H]2CCC[C@H](NC(=O)[C@H](C)N(C)C(=O)/C=C/CN(C)C)C2)c(Nc2ccc(F)cc2)n1` [Compound 21-37], the IC50 in the assay with Molm-13 cells (MOLM-13, MOLM13 cell) was less than 0.01 µM; in the assay on MV4-11 cells (MV4-11, MV4-11 cell), less than 0.01 µM; in assay [1] (FLT3 (WT)), less than 0.01 µM.

For the molecule `CCCNc1nc(Nc2cnc3[nH]nc(OC)c3c2)ncc1C#CCCCNC(=O)[C@H](C)N(C)C(=O)/C=C/CN(C)C` [Compound 22-66], the IC50 in the assay on Molm-13 cells (MOLM-13, MOLM13 cell) was less than 0.01 µM; in the assay with MV4-11 cells (MV4-11, MV4-11 cell), less than 0.01 µM; in assay [1] (FLT3 (WT)) it was less than 0.01 µM.

Turning to `C[C@@H](C(=O)NCCCC#Cc1cnc(Nc2ccc(C#N)cc2)nc1N1CCC(F)(F)C1)N(C)C(=O)/C=C/CN(C)C` [Compound 10-42], the IC50 (with Molm-13 cells (setting [2]); in the assay on MV4-11 cells (setting [3]); in assay [1] (setting [4])) was less than 0.01 µM in each case.

For `C[C@@H](C(=O)NCCCC#Cc1cnc(Nc2ccc(C#N)cc2)nc1NCC1CC1)N(C)C(=O)/C=C/CN(C)C` [Compound 21-12], the IC50 (in the assay on Molm-13 cells (setting [2]); in the assay with MV4-11 cells (setting [3]); in assay [1] (setting [4])) was less than 0.01 µM each time.

Take `CCCNc1nc(Nc2ccc(C(N)=O)cc2)ncc1C(=O)Nc1cccc(NC(=O)[C@H](C)N(C)C(=O)/C=C/CNC)c1` [Compound 4-2]: the IC50 (with Molm-13 cells (setting [2]); in the assay on MV4-11 cells (setting [3]); in assay [1] (setting [4])) was less than 0.01 µM each time.

On to `C[C@@H](C(=O)N[C@H]1C[C@@H](C#Cc2cnc(Nc3ccc(C#N)cc3)nc2NC2CC2)C1)N(C)C(=O)/C=C/CN(C)C` (relative stereo) [Compound 15-8, (E)-N—((S)-1-(((1S*,3R*)-3-((2-((4-Cyanophenyl)amino)-4-(cyclopropylamino)pyrimidin-5-yl)ethynyl)cyclobutyl)amino)-1-oxopropan-2-yl)-4-(dimethylamino)-N-methyl-2-butenamide], for which the IC50 (in the assay with Molm-13 cells (setting [2]); with MV4-11 cells (setting [3]); in assay [1] (setting [4])) was less than 0.01 µM throughout.

In the case of `CCCNc1nc(Nc2cccc(F)c2)ncc1-c1cn(CCNC(=O)[C@H](C)N(C)C(=O)/C=C/CN(C)C)nn1` [Compound 17-2, (S,E)-4-(dimethylamino)-N-(1-((2-(4-(2-((3-fluorophenyl)amino)-4-(propylamino)pyrimidin-5-yl)-1H-1,2,3-triazol-1-yl)ethyl)amino)-1-oxopropan-2-yl)-N-methyl-2-butenamide], the IC50 (in the assay with Molm-13 cells (setting [2]); with MV4-11 cells (setting [3]); in assay [1] (setting [4])) was less than 0.01 µM in each case.

With `CCCNc1nc(Nc2ccc3occc3c2)ncc1C#CCCCNC(=O)[C@H](C)N(C)C(=O)/C=C/CN(C)C` [Compound 21-34], the IC50 in the assay on Molm-13 cells (MOLM-13, MOLM13 cell) is less than 0.01 µM; in the assay with MV4-11 cells (MV4-11, MV4-11 cell), less than 0.01 µM; in assay [1] (FLT3 (WT)), less than 0.01 µM.

Turning to `COCCCNc1nc(Nc2ccnc(F)c2)ncc1C#CCCCNC(=O)[C@H](C)N(C)C(=O)/C=C/CN(C)C` [Compound 9-16], the IC50 (with Molm-13 cells (setting [2]); in the assay on MV4-11 cells (setting [3]); in assay [1] (setting [4])) was less than 0.01 µM throughout.

Turning to `CCCNc1nc(Nc2ccnc(F)c2)ncc1C#C[C@@H]1CCC[C@H](NC(=O)[C@H](C)N(C)C(=O)/C=C/CN(C)C)C1` [Compound 14-1, (E)-4-(dimethylamino)-N—((S)-1-(((1S,3R)-3-((2-((2-fluoropyridin-4-yl)amino)-4-(propylamino)pyrimidin-5-yl)ethynyl)cyclohexyl)amino)-1-oxopropan-2-yl)-N-methyl-2-butenamido], the IC50 (in the assay on Molm-13 cells (setting [2]); in the assay with MV4-11 cells (setting [3]); in assay [1] (setting [4])) was less than 0.01 µM in each case.

As to `CCCNc1nc(NCCc2ccncc2)ncc1C(=O)Nc1cccc(NC(=O)[C@H](C)N(C)C(=O)/C=C/CN(C)C)c1` [Compound 2-12, (S,E)-N-(3-(2-(4-(Dimethylamino)-N-methyl-2-butenamido)propanamido)phenyl)-4-(propylamino)-2-((2-(pyridin-4-yl)ethyl)amino)pyrimidine-5-carboxamide], the IC50 (with Molm-13 cells (setting [2]); in the assay on MV4-11 cells (setting [3]); in assay [1] (setting [4])) was less than 0.01 µM throughout.

As to `CCOc1nc(Nc2ccc(C#N)cc2)ncc1C#C[C@@H]1CCC[C@H](NC(=O)[C@H](C)N(C)C(=O)/C=C/CN(C)C)C1` [Compound 21-20], the IC50 (in the assay with Molm-13 cells (setting [2]); in the assay with MV4-11 cells (setting [3]); in assay [1] (setting [4])) was less than 0.01 µM in each case.

Consider `C[C@@H](C(=O)N[C@H]1C[C@@H](C#Cc2cnc(Nc3cccc(F)c3)nc2NCCCF)C1)N(C)C(=O)/C=C/CN(C)C` [Compound 15-13, (E)-4-(Dimethylamino)-N—((S)-1-(((1S,3R)-3-((2-((3-fluorophenyl)amino)-4-((3-fluoropropyl)amino)pyrimidin-5-yl)ethynyl)cyclobutyl)amino)-1-oxopropan-2-yl)-N-methyl-2-butenamide], for which the IC50 (in the assay on Molm-13 cells (setting [2]); with MV4-11 cells (setting [3]); in assay [1] (setting [4])) was less than 0.01 µM throughout.

With `C[C@@H](C(=O)NCCCC#Cc1cnc(Nc2cccc(F)c2)nc1NCCC#N)N(C)C(=O)/C=C/CN(C)C` [Compound 10-8], the IC50 was 0.01 to 0.1 µM in the assay with Molm-13 cells (setting [2]), less than 0.01 µM in the assay with MV4-11 cells (setting [3]) and less than 0.01 µM in assay [1] (setting [4]).

The values are drawn from patent US9145415B2, “Nitrogen-containing heterocyclic compound or salt thereof” (FUJIFILM Corporation, priority 2012, dated 2015).
